Data taken from publication PMC3781304 (American Journal of Cardiovascular Drugs, 2013).
Entries after “also recorded” stand apart in the source; their conditions may differ. One block for each compound: values may come before it.

Experiments:
[1] = Atorvastatin study: safety, treatment-emergent adverse events
[2] = Amiodarone study: safety, treatment-emergent adverse events; format: in vivo, healthy volunteers (human)
[3] = Tolerability across the 6 studies; format: in vivo, healthy subjects (human); settings: edoxaban alone or coadministered with the 6 cardiovascular drugs
[4] = cited from earlier work
[5] = Digoxin study: safety, treatment-emergent adverse events; settings: for Fecal occult bleeding (TEAE): printed under most frequent and under bleeding-related TEAEs
[6] = Quinidine study: safety, treatment-emergent adverse events; settings: for Fecal occult bleeding (TEAE): printed under most frequent and under bleeding-related TEAEs
[7] = Verapamil study: safety, treatment-emergent adverse events
[8] = Dronedarone study: safety, treatment-emergent adverse events
[9] = Digoxin drug-drug interaction study: edoxaban pharmacokinetics
[10] = Quinidine drug-drug interaction study: edoxaban pharmacokinetics
[11] = Verapamil drug-drug interaction study: edoxaban pharmacokinetics
[12] = Amiodarone drug-drug interaction study: edoxaban pharmacokinetics; settings: human, in vivo, 60 mg
[13] = Dronedarone drug-drug interaction study: edoxaban pharmacokinetics
[14] = Edoxaban administered alone, pharmacokinetics across the 6 studies
[15] = Atorvastatin drug-drug interaction study: edoxaban pharmacokinetics; settings: human, in vivo, 60 mg

Structure (SMILES): CC(C)c1c(C(=O)Nc2ccccc2)c(-c2ccccc2)c(-c2ccc(F)cc2)n1CC[C@@H](O)C[C@@H](O)CC(=O)O [Atorvastatin, atorvastatin]
Constipation (TEAE) [1]: 2 (6.3%) n (%)
Dysmenorrhea (bleeding-related TEAE) [1]: 0 n (%)
Fecal occult bleeding (bleeding-related TEAE) [1]: 0 n (%)
Nasal congestion (TEAE) [1]: 1 (3.1%) n (%)
Pharyngolaryngeal pain (TEAE) [1]: 1 (3.1%) n (%)
Subjects reporting ≥1 TEAE [1]: 6 (18.8%) n (%)
Subjects reporting ≥1 treatment-related TEAE [1]: 3 (9.4%) n (%)

AUC ([9]; human, in vivo, 60 mg): 1960 ng·h/mL
concentration at 24 h ([9]; human, in vivo, 60 mg): 24.5 ng/mL
half-life ([9]; human, in vivo, 60 mg): 9.83 h
AUC(0-inf) ([10]; human, in vivo, 60 mg): 1580 ng·h/mL
Cmax ([10]; human, in vivo, 60 mg): 223 ng/mL
Tmax ([10]; human, in vivo, 60 mg): 1.48 h
concentration at 24 h ([10]; human, in vivo, 60 mg): 11 ng/mL
half-life ([10]; human, in vivo, 60 mg): 6.43 h
AUC(0-t) ([10]; human, in vivo, 60 mg, Edoxaban AUC0–24, quinidine study, mean (SD)): 1450 ng·h/mL
AUC(0-t) ([10]; human, in vivo, 60 mg, Edoxaban AUClast, quinidine study, mean (SD)): 1440 ng·h/mL
Edoxaban AUC0–24 ([10]; quinidine study, mean (SD)): 1449.2 (328.6) ng·h/mL
AUC(0-t) ([11]; human, in vivo, 60 mg): 1440 ng·h/mL
Cmax ([11]; human, in vivo, 60 mg): 226 ng/mL
Tmax ([11]; human, in vivo, 60 mg): 1.48 h
concentration at 24 h ([11]; human, in vivo, 60 mg): 11 ng/mL
half-life ([11]; human, in vivo, 60 mg): 7.43 h
AUC(0-inf) [12]: 1740 ng·h/mL
AUC(0-t) [12]: 1720 ng·h/mL
Cmax [12]: 251 ng/mL
half-life [12]: 12.2 h
half-life ([13]; human, in vivo, 60 mg): 10.2 h
Time of peak edoxaban concentrations postdose ([14]; across the studies): 1 to 3 h
AUC(0-inf) ([14]; human, in vivo, 60 mg): 1580 to 1970 ng·h/mL
Cmax ([14]; human, in vivo, 60 mg): 223 to 296 ng/mL
AUC(0-inf) [15]: 1970 ng·h/mL
Cmax [15]: 282 ng/mL
Tmax [15]: 1.02 h
concentration at 24 h [15]: 12.6 ng/mL
half-life [15]: 12 h
Structure (SMILES): CN1CCc2nc(C(=O)N[C@@H]3C[C@@H](C(=O)N(C)C)CC[C@@H]3NC(=O)C(=O)Nc3ccc(Cl)cn3)sc2C1 [Edoxaban, edoxaban]
Contact dermatitis (TEAE) [2]: 0 n (%)
Diarrhea (TEAE) [2]: 1 (3.3 %) n (%)
Fecal occult bleeding (bleeding-related TEAE) [2]: 0 n (%)
Gingival bleeding (bleeding-related TEAE) [2]: 0 n (%)
Menorrhagia (bleeding-related TEAE) [2]: 0 n (%)
Pain in extremity (TEAE) [2]: 1 (3.3 %) n (%)
Subjects reporting ≥1 TEAE [2]: 5 (16.7 %) n (%)
Tolerability (in words) [3]: well tolerated
Systemically absorbed drug eliminated via renal excretion [4]: approximately 50%
Mean terminal elimination half-life (t½) ([4]; healthy volunteers): 8.75 to 10.4 h
Time of peak concentrations postdose ([4]; healthy volunteers): 1 to 2 h
Dizziness (TEAE) [5]: 1 (4.2 %) n (%)
Headache (TEAE) [5]: 0 n (%)
Nausea (TEAE) [5]: 1 (4.2 %) n (%)
Subjects reporting ≥1 TEAE [5]: 19 (79.2 %) n (%)
Subjects reporting ≥1 treatment-related TEAE [5]: 1 (4.2 %) n (%)
Fecal occult bleeding (TEAE) [5]: 1 (4.2 %) n (%)
Blood creatinine increased (TEAE) [6]: 0 n (%)
Chest pain (TEAE) [6]: 1 (2.7 %) n (%)
Epistaxis (bleeding-related TEAE) [6]: 0 n (%)
Headache (TEAE) [6]: 0 n (%)
Hematochezia (bleeding-related TEAE) [6]: 1 (2.7 %) n (%)
Irregular menstruation (bleeding-related TEAE) [6]: 1 (2.7 %) n (%)
Menorrhagia (bleeding-related TEAE) [6]: 1 (2.7 %) n (%)
Nausea (TEAE) [6]: 0 n (%)
Subjects reporting ≥1 TEAE [6]: 5 (13.5 %) n (%)
Subjects reporting ≥1 treatment-related TEAE [6]: 3 (8.1 %) n (%)
Fecal occult bleeding (TEAE) [6]: 2 (5.4 %) n (%)
Constipation (TEAE) [7]: 1 (3.0 %) n (%)
Epistaxis (bleeding-related TEAE) [7]: 0 n (%)
Fecal occult bleeding (bleeding-related TEAE) [7]: 1 (3.0 %) n (%)
Headache (TEAE) [7]: 0 n (%)
Menorrhagia (bleeding-related TEAE) [7]: 0 n (%)
Occular hyperemia (TEAE) [7]: 0 n (%)
Subjects reporting ≥1 TEAE [7]: 4 (12.1 %) n (%)
Subjects reporting ≥1 treatment-related TEAE [7]: 1 (3.0 %) n (%)
Bleeding-related TEAEs [8]: 0 n (%)
Headache (TEAE) [8]: 0 n (%)
Subjects reporting ≥1 TEAE [8]: 0 n (%)
Subjects reporting ≥1 treatment-related TEAE [8]: 0 n (%)
Constipation (TEAE) [1]: 0 n (%)
Dysmenorrhea (bleeding-related TEAE) [1]: 1 (3.1%) n (%)
Fecal occult bleeding (bleeding-related TEAE) [1]: 2 (6.3%) n (%)
Nasal congestion (TEAE) [1]: 0 n (%)
Pharyngolaryngeal pain (TEAE) [1]: 0 n (%)
Subjects reporting ≥1 TEAE [1]: 4 (13.3%) n (%)
Subjects reporting ≥1 treatment-related TEAE [1]: 1 (3.3%) n (%)

Structure (SMILES): COc1ccc(CCN(C)CCCC(C#N)(c2ccc(OC)c(OC)c2)C(C)C)cc1OC (stereo not drawn) [Verapamil, verapamil]
Constipation (TEAE) [7]: 4 (12.1 %) n (%)
Epistaxis (bleeding-related TEAE) [7]: 0 n (%)
Fecal occult bleeding (bleeding-related TEAE) [7]: 0 n (%)
Headache (TEAE) [7]: 3 (9.1 %) n (%)
Menorrhagia (bleeding-related TEAE) [7]: 1 (3.0 %) n (%)
Occular hyperemia (TEAE) [7]: 1 (3.0 %) n (%)
Subjects reporting ≥1 TEAE [7]: 13 (39.4 %) n (%)
Subjects reporting ≥1 treatment-related TEAE [7]: 9 (27.2 %) n (%)
Subjects withdrawn with abnormal ECG ([7]; following verapamil monotherapy): 3 subjects
Effect of coadministration on edoxaban exposure (in words) ([11]; verapamil study): increased edoxaban exposure; also recorded: significantly increased exposure

Structure (SMILES): CCCCc1oc2ccc(NS(C)(=O)=O)cc2c1C(=O)c1ccc(OCCCN(CCCC)CCCC)cc1 [Dronedarone, dronedarone]
Bleeding-related TEAEs [8]: 0 n (%)
Headache (TEAE) [8]: 0 n (%)
Subjects reporting ≥1 TEAE [8]: 4 (11.8 %) n (%)
Subjects reporting ≥1 treatment-related TEAE [8]: 1 (2.9 %) n (%)
Effect of coadministration on edoxaban exposure (in words) ([13]; dronedarone study): increased edoxaban exposure; also recorded: significantly increased exposure

Structure (SMILES): C[C@H]1O[C@@H](O[C@H]2[C@@H](O)C[C@H](O[C@H]3[C@@H](O)C[C@H](O[C@H]4CC[C@@]5(C)[C@H](CC[C@@H]6[C@@H]5C[C@@H](O)[C@]5(C)[C@@H](C7=CC(=O)OC7)CC[C@]65O)C4)O[C@@H]3C)O[C@@H]2C)C[C@H](O)[C@@H]1O [Digoxin, digoxin]
Dizziness (TEAE) [5]: 0 n (%)
Headache (TEAE) [5]: 2 (8.3 %) n (%)
Nausea (TEAE) [5]: 1 (4.2 %) n (%)
Subjects reporting ≥1 TEAE [5]: 8 (33.3 %) n (%)
Subjects reporting ≥1 treatment-related TEAE [5]: 1 (4.2 %) n (%)
Fecal occult bleeding (TEAE) [5]: 3 (12.5 %) n (%)
Effect of coadministration on edoxaban exposure/PK (in words) ([9]; digoxin study): minimal effects; also recorded: relatively minor effects; also recorded: did not significantly affect exposure

Structure (SMILES): CCCCc1oc2ccccc2c1C(=O)c1cc(I)c(OCCN(CC)CC)c(I)c1 [Amiodarone, amiodarone]
Contact dermatitis (TEAE) [2]: 2 (6.9%) n (%)
Diarrhea (TEAE) [2]: 0 n (%)
Fecal occult bleeding (bleeding-related TEAE) [2]: 0 n (%)
Gingival bleeding (bleeding-related TEAE) [2]: 0 n (%)
Menorrhagia (bleeding-related TEAE) [2]: 0 n (%)
Pain in extremity (TEAE) [2]: 0 n (%)
Subjects reporting ≥1 TEAE [2]: 7 (24.1 %) n (%)
Subjects reporting ≥1 treatment-related TEAE [2]: 1 (3.4 %) n (%)

Structure (SMILES): C=C[C@H]1C[N@@]2CC[C@H]1C[C@@H]2[C@@H](O)c1ccnc2ccc(OC)cc12 [Quinidine, quinidine]
Blood creatinine increased (TEAE) [6]: 1 (2.8 %) n (%)
Chest pain (TEAE) [6]: 0 n (%)
Epistaxis (bleeding-related TEAE) [6]: 1 (2.8 %) n (%)
Headache (TEAE) [6]: 3 (8.3 %) n (%)
Hematochezia (bleeding-related TEAE) [6]: 0 n (%)
Irregular menstruation (bleeding-related TEAE) [6]: 0 n (%)
Menorrhagia (bleeding-related TEAE) [6]: 0 n (%)
Nausea (TEAE) [6]: 2 (5.6 %) n (%)
Subjects reporting ≥1 TEAE [6]: 11 (30.6 %) n (%)
Subjects reporting ≥1 treatment-related TEAE [6]: 4 (11.1 %) n (%)
Subjects withdrawn with QTc prolongation ([6]; after quinidine dosing): 1 subject
Fecal occult bleeding (TEAE) [6]: 0 n (%)
Effect of coadministration on edoxaban exposure (in words) ([10]; quinidine study): increased edoxaban exposure; also recorded: significantly increased exposure
